Measured values from patent US9145346B1, “Process for 2,2,4,4-tetramethylcyclobutane-1,3-diol crystallization” (Eastman Chemical Company, priority 2014, dated 2015).

Experiment: Solubility (saturated concentration) of cis-TMCD and trans-TMCD in various solvents, by gas chromatography
Assay type: physicochemical
Procedure: All concentrations were measured by gas chromatography. Water concentration was measured by Karl Fischer titrations.
The solubility of cis-TMCD and trans-TMCD in various solvents was determined by charging cis-TMCD, trans-TMCD, and the solvent or solvents of interest into a 120 ml jacketed glass vessel. The vessel was equipped with a stir bar in order to provide mixing and the jacket was used to control the temperature of the vessel contents. The vessel was equipped with charging and sampling ports on top of the vessel.
The slurry was allowed to stand for a time sufficient for the solids to saturate the solvent at the desired temperature. At that time, a sample of the solution was withdrawn from the cell using a fritted pipette so as to remove only the liquid phase. The sample was analyzed for cis-TMCD and trans-TMCD isomer content. These values represent the saturated concentration of each isomer at the sampling temperature.
After this, the cell contents were heated to the next desired temperature and the contents were held for another time interval sufficient to allow the slurry to equilibrate. A sample was then taken of the solution and analyzed. Following this procedure, solubility data was collected up to the final desired temperature.
The reported solubility of each isomer at a given temperature for a given solvent is expressed as a weight % relative to the saturated concentration of the isomer at the highest temperature reported for a given solvent.

CC1(C)[C@H](O)C(C)(C)[C@@H]1O [cis-TMCD, cis-2,2,4,4-tetramethylcyclobutane-1,3-diol]
Relative solubility (2-Ethylhexanol, 0.7° C., relative to 89.8° C.): 10% relative wt % | Relative solubility (2-Ethylhexanol, 12.5° C., relative to 89.8° C.): 16% relative wt % | Relative solubility (2-Ethylhexanol, 24.7° C., relative to 89.8° C.): 21% relative wt % | Relative solubility (2-Ethylhexanol, 40.0° C., relative to 89.8° C.): 29% relative wt % | Relative solubility (2-Ethylhexanol, 49.9° C., relative to 89.8° C.): 37% relative wt % | Relative solubility (2-Ethylhexanol, 60.2° C., relative to 89.8° C.): 46% relative wt % | Relative solubility (2-Ethylhexanol, 69.3° C., relative to 89.8° C.): 58% relative wt % | Relative solubility (2-Ethylhexanol, 79.3° C., relative to 89.8° C.): 76% relative wt % | Relative solubility (2-Ethylhexanol, 89.8° C., relative to 89.8° C.): 100% relative wt % | Relative solubility (2-Ethylhexyl Acetate, 5.9° C., relative to 79.4° C.): 5% relative wt % | Relative solubility (2-Ethylhexyl Acetate, 15.5° C., relative to 79.4° C.): 8% relative wt % | Relative solubility (2-Ethylhexyl Acetate, 25.1° C., relative to 79.4° C.): 12% relative wt % | Relative solubility (2-Ethylhexyl Acetate, 40.5° C., relative to 79.4° C.): 22% relative wt % | Relative solubility (2-Ethylhexyl Acetate, 49.8° C., relative to 79.4° C.): 31% relative wt % | Relative solubility (2-Ethylhexyl Acetate, 49.9° C., relative to 79.4° C.): 32% relative wt % | Relative solubility (2-Ethylhexyl Acetate, 60.5° C., relative to 79.4° C.): 47% relative wt % | Relative solubility (2-Ethylhexyl Acetate, 70.3° C., relative to 79.4° C.): 74% relative wt % | Relative solubility (2-Ethylhexyl Acetate, 79.4° C., relative to 79.4° C.): 100% relative wt % | Relative solubility (2-Ethylhexyl Acetate, −5.0° C., relative to 79.4° C.): 4% relative wt % | Relative solubility (CHDM, 69.0° C., relative to 106.9° C.): 27% relative wt % | Relative solubility (CHDM, 79.2° C., relative to 106.9° C.): 58% relative wt % | Relative solubility (CHDM, 88.9° C., relative to 106.9° C.): 69% relative wt % | Relative solubility (CHDM, 95.6° C., relative to 106.9° C.): 85% relative wt % | Relative solubility (CHDM, 106.9° C., relative to 106.9° C.): 100% relative wt % | Relative solubility (Dimethyl Carbonate, 6.2° C., relative to 70.1° C.): 7% relative wt % | Relative solubility (Dimethyl Carbonate, 16.3° C., relative to 70.1° C.): 9% relative wt % | Relative solubility (Dimethyl Carbonate, 25.7° C., relative to 70.1° C.): 14% relative wt % | Relative solubility (Dimethyl Carbonate, 40.5° C., relative to 70.1° C.): 28% relative wt % | Relative solubility (Dimethyl Carbonate, 54.7° C., relative to 70.1° C.): 55% relative wt % | Relative solubility (Dimethyl Carbonate, 70.1° C., relative to 70.1° C.): 100% relative wt % | Relative solubility (Ethanol, 5.3° C., relative to 60.3° C.): 47% relative wt % | Relative solubility (Ethanol, 14.3° C., relative to 60.3° C.): 52% relative wt % | Relative solubility (Ethanol, 25.5° C., relative to 60.3° C.): 68% relative wt % | Relative solubility (Ethanol, 39.9° C., relative to 60.3° C.): 81% relative wt % | Relative solubility (Ethanol, 50.1° C., relative to 60.3° C.): 88% relative wt % | Relative solubility (Ethanol, 60.3° C., relative to 60.3° C.): 100% relative wt % | Relative solubility (Ethyl Acetate, 4.2° C., relative to 54.9° C.): 15% relative wt % | Relative solubility (Ethyl Acetate, 15.0° C., relative to 54.9° C.): 24% relative wt % | Relative solubility (Ethyl Acetate, 26.2° C., relative to 54.9° C.): 37% relative wt % | Relative solubility (Ethyl Acetate, 40.5° C., relative to 54.9° C.): 62% relative wt % | Relative solubility (Ethyl Acetate, 54.9° C., relative to 54.9° C.): 100% relative wt % | Relative solubility (Ethyl Acetate, −5.1° C., relative to 54.9° C.): 12% relative wt % | Relative solubility (Ethylene Glycol, 26.5° C., relative to 91.4° C.): 25% relative wt % | Relative solubility (Ethylene Glycol, 36.2° C., relative to 91.4° C.): 32% relative wt % | Relative solubility (Ethylene Glycol, 48.5° C., relative to 91.4° C.): 42% relative wt % | Relative solubility (Ethylene Glycol, 61.5° C., relative to 91.4° C.): 57% relative wt % | Relative solubility (Ethylene Glycol, 72.1° C., relative to 91.4° C.): 68% relative wt % | Relative solubility (Ethylene Glycol, 82.2° C., relative to 91.4° C.): 87% relative wt % | Relative solubility (Methanol, 16.9° C., relative to 41.3° C.): 86% relative wt % | Relative solubility (Methanol, 25.6° C., relative to 41.3° C.): 91% relative wt % | Relative solubility (Methanol, 41.3° C., relative to 41.3° C.): 100% relative wt % | Relative solubility (Methanol, −2.5° C., relative to 41.3° C.): 77% relative wt % | Relative solubility (Methyl Acetate, 5.9° C., relative to 49.8° C.): 15% relative wt % | Relative solubility (Methyl Acetate, 15.5° C., relative to 49.8° C.): 22% relative wt % | Relative solubility (Methyl Acetate, 25.1° C., relative to 49.8° C.): 33% relative wt % | Relative solubility (Methyl Acetate, 40.5° C., relative to 49.8° C.): 59% relative wt % | Relative solubility (Methyl Acetate, 49.8° C., relative to 49.8° C.): 100% relative wt % | Relative solubility (Methyl Acetate, −5.0° C., relative to 49.8° C.): 9% relative wt % | Relative solubility (Methyl i-Butyl Carbinol, 9.4° C., relative to 81.9° C.): 20% relative wt % | Relative solubility (Methyl i-Butyl Carbinol, 20.4° C., relative to 81.9° C.): 25% relative wt % | Relative solubility (Methyl i-Butyl Carbinol, 31.1° C., relative to 81.9° C.): 31% relative wt % | Relative solubility (Methyl i-Butyl Carbinol, 40.0° C., relative to 81.9° C.): 40% relative wt % | Relative solubility (Methyl i-Butyl Carbinol, 49.5° C., relative to 81.9° C.): 49% relative wt % | Relative solubility (Methyl i-Butyl Carbinol, 60.0° C., relative to 81.9° C.): 62% relative wt % | Relative solubility (Methyl i-Butyl Carbinol, 69.5° C., relative to 81.9° C.): 78% relative wt % | Relative solubility (Methyl i-Butyl Carbinol, 81.9° C., relative to 81.9° C.): 100% relative wt % | Relative solubility (i-Butyl Acetate, 4.8° C., relative to 90.1° C.): 5% relative wt % | Relative solubility (i-Butyl Acetate, 16.9° C., relative to 90.1° C.): 8% relative wt % | Relative solubility (i-Butyl Acetate, 25.6° C., relative to 90.1° C.): 11% relative wt % | Relative solubility (i-Butyl Acetate, 41.3° C., relative to 90.1° C.): 19% relative wt % | Relative solubility (i-Butyl Acetate, 56.2° C., relative to 90.1° C.): 32% relative wt % | Relative solubility (i-Butyl Acetate, 70.2° C., relative to 90.1° C.): 52% relative wt % | Relative solubility (i-Butyl Acetate, 90.1° C., relative to 90.1° C.): 100% relative wt % | Relative solubility (i-Butyl Acetate, −2.5° C., relative to 90.1° C.): 5% relative wt % | Relative solubility (n-Butanol, 5.9° C., relative to 60.5° C.): 46% relative wt % | Relative solubility (n-Butanol, 15.5° C., relative to 60.5° C.): 51% relative wt % | Relative solubility (n-Butanol, 25.1° C., relative to 60.5° C.): 59% relative wt % | Relative solubility (n-Butanol, 40.5° C., relative to 60.5° C.): 73% relative wt % | Relative solubility (n-Butanol, 49.8° C., relative to 60.5° C.): 86% relative wt % | Relative solubility (n-Butanol, 49.9° C., relative to 60.5° C.): 86% relative wt % | Relative solubility (n-Butanol, 60.5° C., relative to 60.5° C.): 100% relative wt % | Relative solubility (n-Butanol, −5.0° C., relative to 60.5° C.): 41% relative wt % | Relative solubility (n-Butyl Propionate, 6.5° C., relative to 91.9° C.): 4% relative wt % | Relative solubility (n-Butyl Propionate, 16.8° C., relative to 91.9° C.): 7% relative wt % | Relative solubility (n-Butyl Propionate, 27.7° C., relative to 91.9° C.): 10% relative wt % | Relative solubility (n-Butyl Propionate, 41.7° C. (sample 4), relative to 91.9° C.): 17% relative wt % | Relative solubility (n-Butyl Propionate, 41.7° C. (sample 5), relative to 91.9° C.): 18% relative wt % | Relative solubility (n-Butyl Propionate, 52.0° C., relative to 91.9° C.): 27% relative wt % | Relative solubility (n-Butyl Propionate, 61.5° C., relative to 91.9° C.): 37% relative wt % | Relative solubility (n-Butyl Propionate, 69.1° C., relative to 91.9° C.): 50% relative wt % | Relative solubility (n-Butyl Propionate, 80.7° C., relative to 91.9° C.): 74% relative wt % | Relative solubility (n-Butyl Propionate, 91.9° C., relative to 91.9° C.): 100% relative wt % | Relative solubility (n-Propyl Propionate, 7.0° C., relative to 72.2° C.): 10% relative wt % | Relative solubility (n-Propyl Propionate, 17.1° C., relative to 72.2° C.): 14% relative wt % | Relative solubility (n-Propyl Propionate, 26.7° C., relative to 72.2° C.): 21% relative wt % | Relative solubility (n-Propyl Propionate, 37.4° C., relative to 72.2° C.): 30% relative wt % | Relative solubility (n-Propyl Propionate, 42.4° C., relative to 72.2° C.): 34% relative wt % | Relative solubility (n-Propyl Propionate, 52.2° C., relative to 72.2° C.): 50% relative wt % | Relative solubility (n-Propyl Propionate, 62.9° C., relative to 72.2° C.): 72% relative wt % | Relative solubility (n-Propyl Propionate, 72.2° C., relative to 72.2° C.): 100% relative wt %
